Three molecules from patent publication US8399435B2, “Compounds for the treatment of proliferative disorders” (Synta Pharmaceuticals Corp., priority 2005, dated 2013) can be followed below.

SMILES strings stand for the structures.

One assay concerns MES-SA (uterine sarcoma). As to the kind of experiment: In vitro cytotoxicity, MTS assay, MES-SA cells. The class given is cell-based. Conditions: Homo sapiens, Uterine Carcinoma, 72 hours incubation. The protocol:
(§1) The in vitro cytotoxicity of the compounds of the invention was determined in the following human cell lines: HL-60 ([…]), MES-SA and MES-SA/DX5 (uterine sarcoma). MES-SA is a model of uterine sarcoma, and the cell are sensitive to a number of chemotherapeutic agents including doxorubicin, dactinomycin, mitomycin C, taxol and bleomycin, but resistant to vinblastine and cisplatin. MES-SA/Dx5 was established in the presence of increasing concentrations of doxorubicin. […] All cells were purchased from ATCC.
(§2) The cell lines were maintained in RPMI1640 (GIBCO) supplemented with 10% FCS, 100 units/mL penicillin, 100 ug/ml streptomycin, and 2 mM L-glutamine. Cells were split every third day and diluted to a concentration of 2×10^5 cells/mL one day before the experiment was performed. All experiments were performed on exponentially growing cell cultures. Cell densities were 2.5×10^4 cells/mL in all experiments.
(§3) Compounds of the invention were prepared by dissolving the compound at a concentration of 10 mM in 100% DMSO. Final concentrations 10, 1, 0.1, 0.01 and 0.001 μM were obtained by diluting the stock solution directly into the tissue culture medium. Cells were incubated with varying concentrations of compound 3 for 72 hours and the IC50 was determined by MTS (i.e. […]) assay. IC50 in this context stands for the concentration of compound required to inhibit 50% tumor cell growth.
For orientation: Tetrazolium dyes change colour on reduction, which living cells bring about.

Another assay has as its system HL-60 (T-cell leukemia). As to the kind of experiment: In vitro cytotoxicity, MTS assay, HL-60 cells. The class given is cell-based. Conditions: Homo sapiens, HL60, Leukemia, 72 hours incubation, concentration to inhibit 50% tumor cell growth. As for the experimental part: as §1, §2, §3
The subject of assay [1] is MES-SA/DX5 (uterine sarcoma, multidrug resistant). As to the kind of experiment: In vitro cytotoxicity, MTS assay, multidrug resistant MES-SA/DX5 cells. The class given is cell-based, human. Conditions: for IC50: Homo sapiens, MES/DX5, MDR-1, 72 hours incubation; for Activity against multidrug resistant cell line MES/SA-DX compared with Taxol: comparison with Taxol. The protocol: as §1, §2, §3

As usually defined, the IC50 is the concentration needed to halve the response being measured. A lower IC50 goes with greater potency. Turning to `COc1ccc(-c2cnsc2-c2cc(OC)c(OC)c(OC)c2)cc1N` [Compound 64, 2-Methoxy-5-[5-(3,4,5-trimethoxy-phenyl)-isothiazol-4-yl]-phenylamine], the IC50 with MES-SA (uterine sarcoma) worked out at 42 nM; with HL-60 (T-cell leukemia), 25 nM; in assay [1], 33 nM. Further, the “Activity against multidrug resistant cell line MES/SA-DX compared with Taxol” value in assay [1] is given as “much greater activity than Taxol”.

`COc1ccc(-c2cnsc2-c2cc(OC)c(OC)c(OC)c2)cc1` [Compound 3, 4-(4-methoxy-phenyl)-5-(3,4,5-trimethoxy-phenyl)-isothiazole]: the 50% inhibitory concentration (IC50) in the assay on MES-SA (uterine sarcoma) worked out at 100 nM; with HL-60 (T-cell leukemia), 474 nM; in assay [1], 80 nM. In addition, in assay [1], the “Activity against multidrug resistant cell line MES/SA-DX compared with Taxol” value was “much greater activity than Taxol”.

Regarding `CC(=O)O[C@H]1C(=O)[C@@]2(C)[C@H]([C@H](OC(=O)c3ccccc3)[C@]3(O)C[C@H](OC(=O)[C@H](O)[C@@H](NC(=O)c4ccccc4)c4ccccc4)C(C)=C1C3(C)C)[C@]1(OC(C)=O)CO[C@@H]1C[C@@H]2O` [Taxol, reference compound], the figures for the half-inhibitory concentration (IC50) (in the assay with MES-SA (uterine sarcoma); in the assay with HL-60 (T-cell leukemia); in assay [1]) were 5 nM, 5 nM and 10000 nM, respectively.
